Test results as given in patent US20190060384A1, “COMPOSITION FOR TREATMENT OR PREVENTION OF LUNG CANCER AND A METHOD THEREFORE” (priority 2017, published 2019).

Columns and labels:
[1] = mouse, in vivo, po
From the text: (§1) Day 28; mortality, clinical symptoms, change in body weight, autopsy findings, hematological (14 items; Table 18) and hematochemical (20 items; Table 19) changes, histopathological changes (23 organs: brain cerebrum, cerebellum and bulbar, heart, thymus, lung, testis, epididymis, kidney, adrenal gland, spleen, liver, pancreas, alimentary tract esophagus, fundic portion, pyloric portion, duodenum, jejunum, ileum, cecum, colon and rectum, submandibular lymph node), and changes in content of liver lipid peroxidation and antioxidant defense system glutathione (GSH), and catalase (CAT) and superoxide dismutase (SOD) activities.

[2] = mouse, in vivo, po; remark: listed apart in the source
From the text: as §1

[3] = male, ICR, mouse, in vivo, po, 28 days
From the text: as §1

[4] = male, ICR (CrljOri:CD1[ICR]), 28 day

SMILES: COc1cc2ncnc(Nc3ccc(F)c(Cl)c3)c2cc1OCCCN1CCOCC1 [Gefitinib, gefitinib]
- Mortality, Days of treatment Periods (Day 0~27) ([1]; male, ICR (CrljOri:CD1[ICR])): 0
- Clinical signs: Any abnormal signs [1, 4]: 0/7 (0%)
- Clinical signs: Normal appearance [1, 4]: 7/7 (100%)
- Mortality, At termination (at end of 28 days of administration) [1, 4]: 0
- Mortality, Total [1, 4]: 0/7 (0%)
- Body weight gain, Day 0~Day 14 [1]: 6.53 ± 0.65
- Body weight gain, Day 0~Day 28 [1]: 3.26 ± 0.57b
- Body weight gain, Day 14~Day 27 [1]: 1.80 ± 0.62
- BASO [2]: 1.11 ± 0.21%
- EOS [2]: 0.36 ± 0.24%
- HCT [2]: 34.06 ± 2.18a %
- HGB [2]: 14.87 ± 0.97a g/dl
- LYM [2]: 90.22 ± 0.91c %
- MCH [2]: 21.01 ± 1.93 pg
- MCHC [2]: 42.31 ± 4.13 g/dL
- MCV [2]: 49.81 ± 3.97 fL
- MONO [2]: 3.59 ± 0.83a %
- NEU [2]: 2.95 ± 0.87c %
- PLT [2]: 760.00 ± 143.30 K/μL
- RBC [2]: 6.30 ± 0.35c M/μL
- RET [2]: 0.43 ± 0.37 ea/1000
- WBC [2]: 7.50 ± 0.49e K/μL
- Autopsy: Liver Discolorization [3]: 7/7
- Autopsy: Liver Discolorization 1+ [3]: 0/7
- Autopsy: Liver Discolorization 2+ [3]: 1/7
- Autopsy: Liver Discolorization 3+ [3]: 6/7
- Autopsy: Liver Normal [3]: 0/7
- Autopsy: Lung Congestion [3]: 2/7
- Autopsy: Lung Congestion 1+ [3]: 2/7
- Autopsy: Lung Normal [3]: 5/7
- Autopsy: Lymph nodes Hypertrophy [3]: 7/7
- Autopsy: Lymph nodes Hypertrophy 1+ [3]: 0/7
- Autopsy: Lymph nodes Hypertrophy 2+ [3]: 4/7
- Autopsy: Lymph nodes Hypertrophy 3+ [3]: 3/7
- Autopsy: Lymph nodes Normal [3]: 0/7
- Autopsy: Others Normal [3]: 7/7
- Autopsy: Spleen Hypertrophy [3]: 7/7
- Autopsy: Spleen Hypertrophy 1+ [3]: 0/7
- Autopsy: Spleen Hypertrophy 2+ [3]: 4/7
- Autopsy: Spleen Hypertrophy 3+ [3]: 3/7
- Autopsy: Spleen Normal [3]: 0/7
